Source: publication PMC6271425, “Synthesis and Sar Study of Diarylpentanoid Analogues as New Anti-Inflammatory Agents” (Molecules, 2014)
Read-outs that look alike come from different tables or passages of the source.

Key:
Format in all cases: cell-based, murine
RAW 264.7 cells = experiment: Cell cytotoxicity determination (MTT assay); conditions: read-out: Cytotoxicity IC50 (µM) ± S.E.M
Description: (§1) The synthesized compounds were screened for NO suppression activity in IFN-γ/LPS-stimulated RAW 264.7 macrophages at a 50 µM test concentration. […] The IC50 values of the fifty-seven bioactive compounds were determined and compared to that of the positive control, curcumin. An MTT assay was also carried out to confirm that NO inhibition was not due to cytotoxicity. […] The complete bioassay results of all the compounds are provided as Table S2 in Supplementary Data.
(§2) RAW 264.7 murine macrophages cells obtained from American Type Culture Collection (ATCC, Rockville, MD, USA) were grown in Dulbecco’s Modified Eagle’s Medium (DMEM) containing 10% fetal bovine serum (FBS) and 1% penicillin/streptomycin in a 95% air and 5% CO2 atmosphere at 37 °C.
(§3) Supernatant in each well was removed followed by addition of 100 µL DMEM. Subsequently, 20 µL of 3-(4,5-dimethylthiazol-2-yl)-2,5-diphenyltetrazolium bromide (MTT, 5 mg/mL) was then added and the plate was incubated in a 95% air and 5% CO2 atmosphere at 37 °C for 4 h. The mixture of culture media and MTT in all wells were removed and the purplish formazan crystals formed were dissolved in dimethyl sulfoxide (DMSO) and further incubated for 15 min at room temperature. The color intensity was then measured at 570 nm at room temperature.

[1] = Cell cytotoxicity determination (MTT assay); conditions: mouse, RAW 264.7 macrophage cells, RAW 264.7 cells, read-out: Cytotoxicity IC50 (µM) ± S.E.M
Description: as §1, §2, §3

[2] = tested on: NO production in IFN-γ/LPS-stimulated RAW 264.7 macrophages; experiment: NO suppression (Griess nitrite determination) in IFN-γ/LPS-stimulated RAW 264.7 macrophages; conditions: for NO Inhibition at 50 µM (%) ± S.E.M: 50 µM test concentration; for inhibition at 50 µM: RAW264.7, 50 µM test concentration, read-out: NO Inhibition at 50 µM (%) ± S.E.M
Description: The synthesized compounds were screened for NO suppression activity in IFN-γ/LPS-stimulated RAW 264.7 macrophages at a 50 µM test concentration. […] The IC50 values of the fifty-seven bioactive compounds were determined and compared to that of the positive control, curcumin. An MTT assay was also carried out to confirm that NO inhibition was not due to cytotoxicity. […] The complete bioassay results of all the compounds are provided as Table S2 in Supplementary Data. RAW 264.7 murine macrophages cells obtained from American Type Culture Collection (ATCC, Rockville, MD, USA) were grown in Dulbecco’s Modified Eagle’s Medium (DMEM) containing 10% fetal bovine serum (FBS) and 1% penicillin/streptomycin in a 95% air and 5% CO2 atmosphere at 37 °C. RAW 264.7 cells at 90%–95% confluency were detached and seeded (50,000 cells/well) into a 96-well culture plate with 50 μL of DMEM and incubated for 24 h. The cells were then stimulated in […] of LPS (Escherichia coli, serotype 0111:B4) and 1 ng/ml of interferon-gamma (IFN-γ) in the presence or absence of test compounds for 17 h. Nitrite concentration was then determined by Griess assay by reacting 50 μL of cell culture supernatant with 50 μL of Griess reagent (1% sulfanilamide and 0.1% N-(1-naphthyl)ethylenediamine dihydrochloride in 2.5% phosphoric acid) at room temperature. The optical density was measured at 550 nm after 5 min of incubation at room temperature with a microplate reader.

[3] = IFN-γ/LPS-stimulated RAW 264.7 cells
[4] = Mus musculus, IFN-γ/LPS-stimulated RAW 264.7 cells
[5] = Mus musculus, RAW264.7, −log IC50 of NO suppression, read-out: pIC50 (converted)
[6] = Mus musculus, RAW264.7, IFN-γ/LPS-stimulated RAW 264.7 cells, read-out: NO Inhibition IC50 (µM) ± S.E.M
[7] = Mus musculus, RAW264.7, Table 6, NO suppression IC50 used for QSAR, unit inferred, read-out: IC50
[8] = IFN-γ/LPS-stimulated RAW 264.7 cells, read-out: NO Inhibition IC50 (µM) ± S.E.M

Compound	IC50 [2, 5] [µM]	IC50 [2, 6] [µM]	IC50 [2, 7] [µM]	IC50 [2, 8] [µM]	IC50 (RAW 264.7 cells) [µM]	IC50 [1] [µM]	NO Inhibition at 50 µM (%) ± S.E.M [2, 3] [%]	inhibition at 50 µM [2, 4] [%]
COc1ccc(C(=O)/C=C(O)/C=C/c2ccccc2OC)c(O)c1 [Compound 48]	38.9	39 ± 1.24	39 ± 1.2		88.6 ± 2.5	88.5 ± 2.54	66.3 ± 6.8	66.3 ± 6.75
COc1cccc(/C=C/C(O)=C/C(=O)c2cc(Cl)ccc2O)c1 [Compound 25]	17.4	17.4 ± 0.372	17.4 ± 0.4	< 20		> 100	76.3 ± 6.5	76.3 ± 6.48
COc1ccccc1/C=C/C(O)=C/C(=O)c1ccccc1O [Compound 5]	25.7	25.7 ± 0.621	25.7 ± 0.6			> 100	91.8 ± 1.5	91.8 ± 1.49
COc1ccccc1/C=C/C(O)=C/C(=O)c1cc(Cl)ccc1O [Compound 24]	36.3	36 ± 0.515	36 ± 0.5			> 100	70.4 ± 1.3	70.4 ± 1.32
COc1ccc(O)c(C(=O)/C=C(O)/C=C/c2cccc(Cl)c2)c1 [Compound 59]	35.5	35.7 ± 0.789	35.7 ± 0.8			> 100	89.1 ± 3.6	89.1 ± 3.56
COc1cc(/C=C/C(O)=C/C(=O)c2cc(Cl)ccc2O)cc(OC)c1OC [Compound 28]	13.5	13.6 ± 0.532	13.6 ± 0.5	< 20		> 100		89.5 ± 5.9
COc1ccc(/C=C/C(O)=C/C(=O)c2ccccc2O)cc1OC [Compound 8]	24.5	24.6 ± 0.73	24.6 ± 0.7			> 100	94.7 ± 1.7	94.7 ± 1.7
Cc1ccc(/C=C/C(O)=C/C(=O)c2cc(Cl)ccc2O)o1 [Compound 38]	25.7	25.5 ± 1.03	25.5 ± 1			> 100	73.8 ± 1.1	73.8 ± 1.14
O=C(/C=C(O)/C=C/c1cccs1)c1ccccc1O [Compound 16]	42.7	42.64 ± 0.128	42.6 ± 0.1			> 100	79.1 ± 4.6	79.1 ± 4.58

Second part, led by results:

IC50 [2, 5] [µM]	IC50 [2, 6] [µM]	IC50 [2, 7] [µM]	IC50 [2, 8] [µM]	Compound	IC50 (RAW 264.7 cells) [µM]	IC50 [1] [µM]	NO Inhibition at 50 µM (%) ± S.E.M [2, 3] [%]	inhibition at 50 µM [2, 4] [%]
35.5				O=C(/C=C(O)/C=C/c1cccc(O)c1)c1cc(O)ccc1O [Compound 90]	85 ± 1.4	> 100	90.9 ± 2.0	90.9 ± 2.02
24.5	24.8 ± 0.4	24.8 ± 0.4		O=C(/C=C(O)/C=C/c1cccc(O)c1)c1ccc(O)cc1O [Compound 94]	70.1 ± 1.8	70.1 ± 1.8	95.4 ± 1.5	95.4 ± 1.45
35.5	35.6 ± 0.621	35.6 ± 0.6		COc1ccc(O)c(C(=O)/C=C(O)/C=C/c2cccs2)c1 [Compound 71]		> 100	85.0 ± 2.7	85 ± 2.66
34.7	35.06 ± 0.165	35.1 ± 0.2		COc1cccc(/C=C/C(O)=C/C(=O)c2cc(OC)ccc2O)c1 [Compound 62]		> 100	92.6 ± 1.2	92.6 ± 1.18
27.5	27.41 ± 0.207	27.4 ± 0.2		COc1ccc(O)c(C(=O)/C=C(O)/C=C/c2ccccc2OC)c1 [Compound 61]		> 100	65.8 ± 2.4	65.8 ± 2.37
33.1	33.4 ± 0.695	33.4 ± 0.7		COc1ccc(/C=C/C(O)=C/C(=O)c2cc(OC)ccc2O)c(OC)c1 [Compound 68]		> 100	79.5 ± 4.7	79.5 ± 4.71
